From patent US20260374739A1, “SMALL MOLECULAR WEIGHT CHEMICAL COMPOUND TO ANTAGONIZE EPH-EPHRIN TETRAMERIZATION AND INHIBIT BIDIRECTIONAL SIGNALING” (THE BOARD OF REGENTS OF THE UNIVERSITY OF TEXAS SYSTEM, priority 2022, published 2026)
pIC50: −log10 of the molar value. Where “and” joins values, the source holds several entries; their conditions need not be identical. Equal entries are not always repeated. Where two headings read alike, the source gives them in different places.

How the values were obtained:
[1] = pharmacokinetics, single IP injection; type: in vivo, mouse; set-up: spinal cord AUC0-t / plasma AUC0-t / brain AUC0-t / liver AUC0-t: unit not given here; conditions: for biodistribution: IP, mice; for plasma AUC0-t: 24 hr; for Cmax / Tmax: mouse; for Cmax: ip, 20 mg/kg
Procedure: Further studies were conducted as in vivo experiments to evaluate the effect of A20 when injected into the mouse. To formulate the compound for intraperitoneal (IP) injection, A20 was tested for solubility in various buffers, pH conditions, and with cyclodextrins (e.g. Captisol). The formulation was prepared by first dissolving A20 powder in DMSO and followed by mixing with sunflower seed oil (SSO) prior to administration (in 6% DMSO/94% SSO). […] PK profiling experiments were then conducted with A20 to determine its absorption, distribution, metabolism, and excretion (ADME) properties. Mice were given a single IP injection of 20 mg/kg A20 and after 10, 30, 90, 180, 360, 960, 1440 min, three animals per time point were sacrificed and tissue was collected and subjected to mass spectrometry.
A study was conducted with A20 salt dissolved solely in PBS and injected at 20 mg/kg to match the previously described study of the free-base. […] The results from the brain, spinal cord, and liver tissues are particularly outstanding and indicate that significant levels of A20 salt remain even after the final collection at 24 hr time point.

EphrinB2-EphB1 = biological target: T1, EphrinB2-EphB1 (Homo sapiens, UniProt P54762); experiment: Octet, immobilized human EphrinB2 binding to 50 nM soluble human EphB1
T1 construct: soluble human EphB1-His, EphB2-His, and EphB4-His ectodomains; commercially available human EphrinB1-Fc (EB1), EphrinB2-Fc (EB2), and EphrinB3-Fc (EB3) ectodomain proteins; purchased
T1 sequence (P54762 18-540 limits assumed): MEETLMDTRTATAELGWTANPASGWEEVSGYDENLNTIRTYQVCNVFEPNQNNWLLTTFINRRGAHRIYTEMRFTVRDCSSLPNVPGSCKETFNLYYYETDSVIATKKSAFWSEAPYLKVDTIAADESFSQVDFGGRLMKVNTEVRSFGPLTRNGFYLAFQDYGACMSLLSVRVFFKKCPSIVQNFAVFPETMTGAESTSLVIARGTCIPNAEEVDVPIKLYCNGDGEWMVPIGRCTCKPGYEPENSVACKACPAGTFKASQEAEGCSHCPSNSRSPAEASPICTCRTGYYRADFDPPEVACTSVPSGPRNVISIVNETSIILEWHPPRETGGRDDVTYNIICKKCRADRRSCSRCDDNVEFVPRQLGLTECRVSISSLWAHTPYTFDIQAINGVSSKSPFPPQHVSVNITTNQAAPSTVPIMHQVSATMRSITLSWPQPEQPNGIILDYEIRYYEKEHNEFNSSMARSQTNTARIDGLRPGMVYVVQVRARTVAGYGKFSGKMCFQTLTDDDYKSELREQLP
Procedure: Studies were conducted to confirm that A20 chemicals can effectively target the human Eph/Ephrin proteins. Octet system was used to first characterize the biophysical interactions of the human B class Eph and Ephrin proteins, and then was tested to assess how A20 may disrupt the interactions. Since the human and rodent proteins are highly conserved, and essentially identical, with EphB2 sharing 99.5% identity between human and mouse, with only 5 of ~1,000 amino acids different, any species-specific differences were not anticipated. Therefore, commercially available human EphrinB1-Fc (EB1), EphrinB2-Fc (EB2), and EphrinB3-Fc (EB3) ectodomain proteins were sparsely immobilized onto biosensors and then exposed to 50 nM of soluble human EphB1-His, EphB2-His, and EphB4-His ectodomains for 800 sec association and 1,000 sec dissociation steps with a total of nine different interactions analyzed. In the absence of A20 chemical, the immobilized human EphrinB proteins bound to their appropriate human EphB target proteins; with EphrinB1 only bound EphB1 and EphB2, EphrinB2 bound all three EphB1, EphB2, and EphB4, and EphrinB3 only bound EphB1 and EphB2 (FIG. 19A-19B).
The Octet studies shown in FIG. 19A-19F, and FIG. 20A-20C, and Table 2 using human proteins involved runs in which 1, 10, and 100 μM concentrations of the A20.2×HCl salt were included to determine how compound would affect binding kinetics. The sensorgrams for immobilized human EphrinB2 binding to EphB2 and EphB4 with 0, 1, 10, and 100 μM concentrations of A20 salt provide good examples of how the compound can alter Eph-Ephrin protein-protein interaction dynamics. […] This indicates the effective/relative IC50 for A20 is well below 1 μM (more accurate IC50 calculations are provided below). Notwithstanding, if just the sensorgram responses for 0 and 1 μM A20 are analyzed for absolute IC50 calculations (FIG. 21B), it is clear the compound is a much stronger inhibitor of the EB2-EphB2 interaction whether assessed near the end of association step (blue star), shortly after start of dissociation step (gold star), or by AUC, as all provide absolute IC50 values −1 μM. […] For EphB2-EB2, the slope went from 20° to 10° in the presence of A20 and for EphB4-EB2 from 5° to 3°. The reduced slope later in the association step indicates the A20 compound is specifically affecting accumulation of the stable tetramer.
Addition of compound also altered dissociation kinetics. […] This is referred to as the “unsurmountable” component of the Eph-Ephrin interaction (FIG. 21C). Additionally, AUC data was graphed for these runs (FIG. 21D). […] For EB2-EphB4, the dimer:tetramer ratio was 83:8 in the presence of A20 and was not much different from the no compound control run because it is already a strong dimer-driven interaction. […] A similar though more muted effect of A20 on tetramer accumulation was also observed for the other interactions of immobilized human EphrinB binding to soluble human EphB1 and EphB2 ectodomains (FIG. 22). The inhibitory effect of A20 is strongest on the EB2-EphB2 interaction with absolute IC50 reaching 1 μM, followed by the EB2-EphB1 interaction with absolute IC50-10 μM. […] The “unsurmountable” component of the EB2-EphB1 interaction was-50% of the tetramer species (14:41) whereas that for EB2-EphB2 interaction is-30%.
Further to the experiments listed above, a series of dose-response experiments were conducted to determine the IC50 of a selected A20 chemical (A20-1) on the kinetics of human EphrinB2 ligand ectodomain protein binding to its cognate human EphB1, EphB2, and EphB4 receptor ectodomain proteins. FIG. 74A-74C are representative sensorgrams showing the effect of 0, 0.1, 0.2, 0.4, 0.8, 1.6, and 3.2 μM, concentrations of the 2×HCl salt of A20-I along with a 10 μM max standard (also A20-1) on three different Ephrin-EphB interactions (e.g., EphB1 in FIG. 74A, EphB2 in FIG. 74B and EphB4 in FIG. 74C). […]

[2] = Table B, EphrinB2-EphB1, read-out: Relative Association IC50 (300 sec)

**Q.** Which “biodistribution” value ([1]; listed as QPB4-Bn) does the source give for `Oc1ccc(CN2CCN(Cc3ccc(Br)cc3)CC2)c2cccnc12` [Compound 42, 5-((4-(4-bromobenzyl)piperazin-1-yl)methyl)quinolin-8-ol] here?
**A.** significantly high levels of compound reach intended tissues (i.e., brain, spinal cord, liver, skin) and persist at high concentrations during the 24 hr period

**Q.** With `Oc1c(Br)cc(CN2CCOCC2)c2cccnc12` [Compound 5, 7-bromo-5-(morpholinomethyl)quinolin-8-ol] as the compound, how does the “biodistribution” value [1] read?
**A.** distributes to plasma, brain, and spinal cord

**Q.** What about the “brain AUC0-t” value ([1]; free base, IP 20 mg/kg) of the same compound?
**A.** 6,684

**Q.** What about the “spinal cord AUC0-t” value ([1]; free base, IP 20 mg/kg) of the same compound?
**A.** 4,928

**Q.** And the “plasma AUC0-t” value ([1]; free base, IP 20 mg/kg)?
**A.** 14,636

**Q.** And the Cmax ([1]; brain, free base, IP 20 mg/kg, read-out: brain Cmax)?
**A.** 104 ng/mL and 323 nM

**Q.** And the Tmax ([1]; brain, free base, IP 20 mg/kg, read-out: brain time of Cmax (converted))?
**A.** 10 min

**Q.** What about the Cmax ([1]; plasma, free base, IP 20 mg/kg, DMSO/SSO, read-out: plasma Cmax) of the same compound?
**A.** 214 ng/mL

**Q.** What about the Cmax ([1]; plasma, free base, IP 20 mg/kg, read-out: plasma Cmax) of the same compound?
**A.** 665 nM

**Q.** What about the Tmax ([1]; plasma, free base, IP 20 mg/kg, read-out: plasma time of Cmax (converted)) of the same compound?
**A.** 10 min

**Q.** What about the Cmax ([1]; spinal cord, free base, IP 20 mg/kg, read-out: spinal cord Cmax) of the same compound?
**A.** 88 ng/mL and 273 nM

**Q.** And the pIC50 (EphrinB2-EphB1; A20 salt, read-out: absolute IC50)?
**A.** ~5.00

**Q.** What about the IC (maximum) (EphrinB2-EphB1; read-out: concentration producing maximum inhibition) of the same compound?
**A.** 10 µM

**Q.** For `Oc1c(Br)cc(CN2CCOCC2)c2cccnc12` [Compound 6, 4-((7-bromo-8-hydroxyquinolin-1-ium-5-yl)methyl)morpholin-4-ium chloride], which Cmax ([1]; brain, salt in PBS, IP 20 mg/kg, read-out: brain Cmax) is on record?
**A.** 7.03 µM and 2790 ng/mL

**Q.** What about the Cmax ([1]; liver, salt in PBS, IP 20 mg/kg, read-out: liver Cmax) of the same compound?
**A.** 22600 ng/mL and 57 µM

**Q.** What about the Cmax ([1]; plasma, salt in PBS, IP 20 mg/kg, read-out: plasma Cmax) of the same compound?
**A.** 2880 ng/mL and 7.27 µM

**Q.** And the Cmax ([1]; spinal cord, salt in PBS, IP 20 mg/kg, read-out: spinal cord Cmax)?
**A.** 3310 ng/mL and 8.35 µM

**Q.** What about the “brain AUC0-t” value ([1]; salt in PBS, IP 20 mg/kg) of the same compound?
**A.** 136,933

**Q.** What about the “brain time of Cmax” value ([1]; salt in PBS, IP 20 mg/kg) of the same compound?
**A.** 10 min

**Q.** What about the “liver AUC0-t” value ([1]; salt in PBS, IP 20 mg/kg) of the same compound?
**A.** 1,363,490

**Q.** And the “plasma time of Cmax” value ([1]; salt in PBS, IP 20 mg/kg)?
**A.** 10 min

**Q.** And the “spinal cord AUC0-t” value ([1]; salt in PBS, IP 20 mg/kg)?
**A.** 86,044

**Q.** What about the “plasma AUC0-t” value ([1]; salt in PBS, IP 20 mg/kg) of the same compound?
**A.** 81,039

**Q.** And the “brain AUC0-t increase over the free-base” value ([1]; salt vs free-base)?
**A.** > 20 fold

**Q.** And the “brain Cmax increase over the free-base” value ([1]; salt vs free-base)?
**A.** > 26 fold

**Q.** What about the “plasma AUC0-t increase over the free-base” value ([1]; salt vs free-base) of the same compound?
**A.** > 5.5 fold

**Q.** And the “plasma Cmax increase over the free-base” value ([1]; salt vs free-base)?
**A.** > 13 fold

**Q.** What about the “spinal cord AUC0-t increase over the free-base” value ([1]; salt vs free-base) of the same compound?
**A.** > 17 fold

**Q.** And the “spinal cord Cmax increase over the free-base” value ([1]; salt vs free-base)?
**A.** > 37 fold

**Q.** What does the source list for `Oc1c(Br)cc(CN2CCN(c3ccc(Br)cc3)CC2)c2cccnc12` [Compound 30, 7-bromo-5-((4-(4-bromophenyl)piperazin-1-ium-1-yl)methyl)-8-hydroxyquinolin-1-ium chloride]?
**A.** pIC50 (EphrinB2-EphB1; Table B, EphrinB2-EphB1, read-out: Absolute AUC/IC50): 6.80; pIC50 (EphrinB2-EphB1; Table B, EphrinB2-EphB1, read-out: Absolute Dissociation IC50 (450 sec)): 6.48; pIC50 (EphrinB2-EphB1; Table B, EphrinB2-EphB1, read-out: Relative AUC/IC50): 7.22; pIC50 (EphrinB2-EphB1; [2]): 6.82 and 5.96; pIC50 (EphrinB2-EphB1; Table B, EphrinB2-EphB1, read-out: Relative Dissociation IC50 (450 sec)): 7.15

**Q.** With `Oc1c(I)cc(CN2CCOCC2)c2cccnc12` [Compound 8, 4-((8-hydroxy-7-iodoquinolin-1-ium-5-yl)methyl)morpholin-4-ium chloride] as the compound, how does the pIC50 (EphrinB2-EphB1; [2]) read?
**A.** 5.94
